Source: US4668686A, “Imidazoquinoline antithrombrogenic cardiotonic agents” (Bristol-Myers Company, priority 1986, dated 1987)
Values after ≈ are worked out from the molar mass of the structure shown. Read-outs that look alike come from different tables or passages of the source.

How the values were obtained:
[1] = tested on: right ventricular contractile force (RVCF); assay: In vivo inotropic activity (right ventricular contractile force, anesthetized ferrets); conditions: Mustela putorius, intraduodenal, read-out: Inotropic Activity In Vivo - Ferret % Change RVCF
Experimental: This test is carried out in ferrets as follows.
Fasted anesthetized ferrets are instrumented to study hemodynamic parameters as well as right ventricular contractile force using a Walton-Brodie open strain guage arch. Drugs are administered intraduodenally as solutions in DMSO (1 mL or less) and effects on myocardial contractile force and other parameters are monitored for 60 minutes after dosing. Changes in contractile force in response to drug treatment are expressed in terms of percent change from predose control.

[2] = tested on: collagen-induced platelet aggregation; assay: In vitro inhibition of collagen-induced platelet aggregation (aggregometer, rabbit PRP); type: cell-based; conditions: Oryctolagus cuniculus, read-out: Platelet Inhibition In Vitro - Rabbit PRP EC50 vs. collagen
Experimental: (§1) The aggregometer method of Born (1), as modified by Mustard, et al. (2) was used to assess the in vitro activity of the various compounds as to inhibition of adenosine diphosphate (ADP) and collagen-induced platelet aggregation. Platelet rich plasma (PRP) was separated by centrifugation from citrated (3.8 percent) rabbit blood. […] The various compounds tested were dissolved in dimethylsulfoxide (DMSO) so that 5 mcl added to the platelet rich plasma would yield the desired test concentration. Vehicle control trials were done and compared with aggregation induced in platelet rich plasma containing various concentrations of the test compounds. Dose response curves were obtained and Effective Concentration (EC50) values calculated.

[3] = tested on: ADP-induced platelet aggregation; assay: In vitro inhibition of ADP-induced platelet aggregation (aggregometer, rabbit PRP); type: cell-based; conditions: Oryctolagus cuniculus, read-out: Platelet Inhibition In Vitro - Rabbit PRP EC50 vs. ADP
Experimental: as §1

[4] = biological target: T1, cAMP phosphodiesterase (PDE) obtained from human platelets (Homo sapiens, UniProt Q14432); assay: Inhibition of cyclic AMP phosphodiesterase; type: biochemical
T1 construct: obtained from human platelets; from tissue; host or cells: human platelets
T1 sequence (Q14432 whole entry): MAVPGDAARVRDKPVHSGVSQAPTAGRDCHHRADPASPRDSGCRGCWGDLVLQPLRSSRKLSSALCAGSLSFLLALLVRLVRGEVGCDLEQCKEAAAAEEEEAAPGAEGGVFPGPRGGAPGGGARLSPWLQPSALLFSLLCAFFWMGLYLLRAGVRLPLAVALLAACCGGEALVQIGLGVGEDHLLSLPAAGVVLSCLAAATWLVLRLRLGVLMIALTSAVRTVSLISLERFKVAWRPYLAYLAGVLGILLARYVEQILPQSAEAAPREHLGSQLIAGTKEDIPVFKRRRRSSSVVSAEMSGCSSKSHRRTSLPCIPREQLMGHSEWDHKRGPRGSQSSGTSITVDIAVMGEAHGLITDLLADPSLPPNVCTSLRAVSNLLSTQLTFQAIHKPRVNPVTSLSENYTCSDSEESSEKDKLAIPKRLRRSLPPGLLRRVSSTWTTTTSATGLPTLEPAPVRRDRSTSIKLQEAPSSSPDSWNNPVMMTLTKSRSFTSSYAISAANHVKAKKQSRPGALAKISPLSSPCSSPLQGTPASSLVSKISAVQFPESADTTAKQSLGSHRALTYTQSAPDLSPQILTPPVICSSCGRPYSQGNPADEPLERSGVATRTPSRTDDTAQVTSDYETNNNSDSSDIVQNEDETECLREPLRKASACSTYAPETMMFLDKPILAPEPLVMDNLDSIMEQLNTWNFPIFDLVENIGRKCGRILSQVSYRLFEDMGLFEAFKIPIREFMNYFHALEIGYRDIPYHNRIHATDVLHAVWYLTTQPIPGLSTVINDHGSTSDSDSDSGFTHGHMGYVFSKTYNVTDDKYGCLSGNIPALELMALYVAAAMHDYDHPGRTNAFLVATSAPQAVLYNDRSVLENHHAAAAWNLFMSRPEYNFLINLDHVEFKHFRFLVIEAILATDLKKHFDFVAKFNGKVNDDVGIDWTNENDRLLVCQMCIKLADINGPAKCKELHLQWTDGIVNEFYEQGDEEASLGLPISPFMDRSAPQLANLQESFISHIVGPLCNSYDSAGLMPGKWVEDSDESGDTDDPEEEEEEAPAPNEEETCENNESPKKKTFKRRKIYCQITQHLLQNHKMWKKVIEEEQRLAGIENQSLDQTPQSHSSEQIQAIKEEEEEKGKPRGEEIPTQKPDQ
Experimental: This assay is carried out essentially as described by Thompson, et al., Methods in Enzymology, 38, 205-212 (1974). Briefly, tritium labeled cyclic adenosine monophosphate (cAMP) is incubated with a phosphodiesterase (PDE) enzynme obtained from human platelets which converts a portion of the cAMP to 5'AMP in culture tubes. This reaction is terminated by submerging the tubes in a boiling water bath after which they are placed on ice and an aliquot of snake venom is added to each tube. This, during a second incubation, converts the 5'AMP to adenosine. Ion exchange resin is added to bind the remaining cyclic AMP. The tubes are centrifuged to sediment the resin and a portion of the clear supernatent (which contains radioactive adenosine) is counted in a liquid scintillation counter. The cAMP phosphodiesterase inhibition activity of a test agent is determined by pre-incubating the PDE enzyme preparation with the test agent.

[5] = tested on: platelet aggregation vs. ADP; assay: Inhibition of platelet aggregation following oral administration (Ex vivo); type: in vivo; conditions: Rattus norvegicus, rats, 2 hours after dosing
Experimental: This test is sometimes referred to in the art as an Ex vivo method and was initially described by Fleming, et al., Arch. Int. Pharmacodyn. Ther., 199, 164 (1972). Briefly, the assay is essentially carried out as follows. Aggregometry is performed in vitro as previously described on platelet rich plasma samples obtained from rats dosed with either test compounds or the vehicle. In all cases, activity is determined 2 hours after the drug is administered orally at various doses by gavage as a suspension in […] plus a few drops of Tween 20.

[6] = 3 mg/kg, i.d., mean ± standard error when n more than 1

Compound | change in vivo at 3 mg/kg [1, 6] | EC50 [2] | EC50 [3] | IC50 [4] | change in vivo at 0.3 mg/kg ([1]; 0.3 mg/kg, i.d.) | ED50 [5] | change in vivo at 3 mg/kg [1]
COc1ccc2nc3[nH]c(=O)[nH]c3cc2c1 [Example 12, 7-Methoxy-1,3-dihydro-2H-imidazo[4,5-b]quinolin-2-one] | 11 ± 4% | 0.02 µg/mL (≈ 0.0929 µM) |  |  |  |  | 
Cc1cccc2c1CC1NC(=O)NC1=N2 (centres unmarked) [Example 20-3, 8-methyl-1,3,9,9a-tetrahydro-2H-imidazo[4,5-b]quinolin-2-one] | 15 ± 4% | 0.03 µg/mL (≈ 0.149 µM) | 0.05 µg/mL (≈ 0.248 µM) | 0.1 µM | 30 ± 5% |  | 
O=c1[nH]c2cc3cc(Br)ccc3nc2[nH]1 [Example 22, 7-Bromo-1,3-dihydro-2H-imidazo[4,5-b]quinolin-2-one] |  | 0.2 µg/mL (≈ 0.757 µM) | 0.3 µg/mL (≈ 1.14 µM) | 0.1 µM |  |  | 
O=c1[nH]c2cc3ccc(C(F)(F)F)cc3nc2[nH]1 [Example 25, 1,3-Dihydro-6-(trifluoromethyl)-2H-imidazo[4,5-b]quinolin-2-one] |  | 0.7 µg/mL (≈ 2.76 µM) | 0.4 µg/mL (≈ 1.58 µM) | 0.3 µM |  | > 10 mg/kg | 
Cc1ccc2c(c1C)CC1NC(=O)NC1=N2 (centres unmarked) [Example 35, 7,8-Dimethyl-1,3,9,9a-tetrahydro-2H-imidazo-[4,5-b]quinolin-2-one] |  | 0.04 µg/mL (≈ 0.186 µM) | 0.1 µg/mL (≈ 0.465 µM) | 0.03 µM |  | > 10 mg/kg | 
Cc1cccc2c1CC1C(=N2)NC(=O)N1C (centres unmarked) [Example 36, 1,3,9,9a-Tetrahydro-1,8-dimethyl-2H-imidazo[4,5-b]quinolin-2-one] |  | 12 µg/mL (≈ 55.7 µM) | 20 µg/mL (≈ 92.9 µM) |  |  |  | 
OCCN(CCO)c1nc(N2CCCCC2)c2nc(N(CCO)CCO)nc(N3CCCCC3)c2n1 [dipyridamole, reference compound] |  |  | > 512 µg/mL |  |  | > 100 mg/kg | 
Cc1[nH]c(=O)c(C#N)cc1-c1ccncc1 [milrinone, reference compound] |  |  |  |  |  |  | 52%
